Reference: US20250288587A1, “Methods of Treating Fibrosis” (Athira Pharma, Inc., priority 2022, published 2025)

Legend:
CFA-stimulated rats [1] = experiment: CFA inflammatory pain model, thermal hyperalgesia (Hargreaves method); assay type: in vivo; set-up: key to Thermal Hyperalgesia, change in sensitivity compared to CFA alone: NS = no statistically significant change in sensitivity compared to CFA alone; + = statistically significant change in sensitivity compared to CFA alone, p < 0.05; conditions: 0.025 mg/kg PO daily; Day 3, 1 h post-dose
MRC-5 cells = experiment: TGFβ-stimulated αSMA expression in MRC-5 cells (HTRF); assay type: cell-based; set-up: key to Significant reduction in αSMA via HTRF compared to TGFβ alone: NS = no statistically significant change in aSMA expression; + = p < 0.05; ++ = p < 0.01; +++ = p < 0.005; ++++ = p < 0.001; conditions: for Significant reduction in αSMA via HTRF compared to TGFβ alone: TGFβ 1 ng/ml, HGF 0.01 ng/ml, 48 h
Method: In this study, pulmonary-derived immortalized fibroblasts, MRC-5 cells, were cultured as a model of the early transition to fibrosis, and αSMA expression was measured using an immunodetection system driven by homogenous time-resolved fluorescence (HTRF) technology. This detection system produces a fluorescent signal in the presence of αSMA in cell lysates. Cells were grown to confluence in 96-well culture plates in complete media, and then transitioned to serum-free media for 2 hours. Next TGFβ (final 1 ng/ml in serum-free media) was added to the cells to stimulate the fibrotic transition. After 2 hours, media containing either HGF or HGF combined with one of the compounds was added to the cells. After incubation for 48 hours, cells were lysed and processed for αSMA HTRF to detect the levels of αSMA expression and compared to TGFβ-stimulated cultures. Statistical analysis consisted of 1-way ANOVA with a Dunnett's multiple comparison's post-test.

CFA-stimulated rats [2] = experiment: CFA inflammatory pain model, thermal hyperalgesia (Hargreaves method); assay type: in vivo; set-up: key to Thermal Hyperalgesia, change in sensitivity compared to CFA alone / Thermal Hyperalgesia, significant reduction in pain behavior vs CFA alone: NS = no statistically significant change in sensitivity compared to CFA alone; + = statistically significant change in sensitivity compared to CFA alone, p < 0.05
Method: (§1) Response to peripheral inflammatory stimulus can be modeled by administering complete Freund's adjuvant (CFA), a suspension of desiccated mycobacterium in paraffin oil and mannide monooleate, by subcutaneous injection into the rat's footpad. The introduction of CFA to peripheral tissues leads to a rapid, sustained, inflammatory reaction in the treated tissue within 24 hours. Subcutaneous administration of CFA in the plantar region of the paw induces inflammatory pain behaviors that persist for at least 8 days. CFA treatment also leads to the accumulation of inflammatory cytokines in paw tissue at the site of injury, which, if unresolved, can lead to formation of fibrotic tissue. The extent of inflammatory response to CFA can be assessed by quantification of inflammatory cytokines in paw skin lysate, and inflammatory pain behaviors by mechanical allodynia (von Frey test) and thermal hyperalgesia (Hargreaves test).
(§2) In one study, Compound 2a was tested for its ability to reduce inflammatory pain behaviors in the CFA inflammation model. On study day 0, […] of CFA was administered subcutaneously in the plantar of the right hind paw. Animals were treated daily with Compound 2a in solution via oral gavage (PO) at doses of 1, 0.1, and 0.025 mg/kg. Treatment began before CFA injection on study day −1 and continued through study day 8.
Thermal hyperalgesia was measured using the Hargreaves method. A temperature ramp was applied to the right hind paw and the paw withdrawal latency (PWL) was recorded as a measure of sensitivity to thermal stimulation. […] Statistical analysis was performed using a 1-way ANOVA with Tukey post-test. A p-value below 0.05 was considered statistically significant.
(§3) In another study, Compounds 1a, 5a, and 6a were similarly tested against CFA-induced inflammatory stimulation in the right hind foot for their ability to reduce pain behaviors. This study also included quantification of inflammatory cytokine expression in paw skin lysate. Inflammatory pain stimulation with CFA injection and assessment of mechanical and thermal pain behaviors were performed as described above, with the exception that only post-dose pain behavior testing is reported.
(§4) Intraplantar CFA injection occurred at day 0. Treatment with Compounds 1a, 5a, and 6a occurred at days −2, 1, 3, and 7. At day 8, the rats were terminated and cytokine levels were measured in paw skin and plasma. Tissue from paw bone, joint, and muscle were obtained for H&E staining and analysis. Cytokine levels in test compound-treated animals were compared to CFA-stimulated animals. Analytes included interleukin 4 (IL-4), tumor necrosis factor alpha (TNF-α) and interferon gamma (IFN-γ). Statistical analysis consisted of 1-way ANOVA followed by Dunnett's multiple comparisons post-test. Mechanical allodynia and thermal hyperalgesia were tested 1 hour post-dosing on days 1, 3, and 7. PWT refers to […] paw withdrawal threshold where a higher value corresponds to a higher pain threshold. PWL refers to […] paw withdrawal latency where a higher value corresponds to a higher pain threshold.

CFA-stimulated rats [3] = experiment: CFA inflammatory pain model, mechanical allodynia (von Frey test); assay type: in vivo; set-up: key to Mechanical Allodynia, change in sensitivity compared to CFA alone / Mechanical Allodynia, significant reduction in pain behavior vs CFA alone: NS = no statistically significant change in sensitivity compared to CFA alone; + = statistically significant change in sensitivity compared to CFA alone, p < 0.05
Method: as §1, §2
Mechanical allodynia was measured using the von Frey test. In this test, rats were placed on a wire mesh and a series of filaments designed to deliver probing force ranging from 4 to 26 grams were applied to the mid-plantar surface of the right hind paw. Animals indicated pain response by lifting the probed paw. The minimal force required to elicit the withdrawal response was recorded as the paw withdrawal threshold (PWT). Von Frey testing was performed 1 hour after Compound 2a dosing on study day 1, 3, and 7, and was also tested pre-dosing on day 7. Statistical analysis was performed using a 1-way ANOVA with Tukey post-test. A p-value below 0.05 was considered statistically significant. Control animals stimulated with CFA but treated with only vehicle had high sensitivity to mechanical stimulation compared to normal control animals.
as §3, §4

[4] = 0.025 mg/kg PO daily, Day 1, 1 h post-dose
[5] = 0.025 mg/kg PO daily, Day 7 post-dose
[6] = 0.025 mg/kg PO daily, Day 7 pre-dose
[7] = 0.1 mg/kg PO daily, Day 1, 1 h post-dose
[8] = 0.1 mg/kg PO daily, Day 3, 1 h post-dose
[9] = 0.1 mg/kg PO daily, Day 7 post-dose
[10] = 0.1 mg/kg PO daily, Day 7 pre-dose
[11] = 1 mg/kg PO daily, Day 1, 1 h post-dose
[12] = 1 mg/kg PO daily, Day 3, 1 h post-dose
[13] = 1 mg/kg PO daily, Day 7 post-dose
[14] = 1 mg/kg PO daily, Day 7 pre-dose

In the case of `CCC(C)CN1CC2N(C(=O)c3ccc(OC(F)F)cc3)CCC(=O)N2[C@@H](C)C1=O` (some centres unmarked) [Compound 2a], the “Thermal Hyperalgesia, change in sensitivity compared to CFA alone” value (from here on “Thermal Hyperalgesia, change”) (CFA-stimulated rats [1]) was “NS”, the αSMA expression (MRC-5 cells; 1 uM, combined with 0.01 ng/ml HGF) was “significantly reduced αSMA” and the “Significant reduction in αSMA via HTRF compared to TGFβ alone” value (MRC-5 cells; test compound 1 nM) was “NS”. The “Significant reduction in αSMA via HTRF compared to TGFβ alone” value (MRC-5 cells; test compound 1 μM) was “++++ (++++ = p < 0.001)”, the “Thermal Hyperalgesia, change” value (CFA-stimulated rats [2]; [4]) was “NS” and the “Thermal Hyperalgesia, change” value (CFA-stimulated rats [2]; [5]) was “NS”. The “Thermal Hyperalgesia, change” value (CFA-stimulated rats [2]; [6]) was “NS”, the “Thermal Hyperalgesia, change” value (CFA-stimulated rats [2]; [7]) was “NS” and the “Thermal Hyperalgesia, change” value (CFA-stimulated rats [2]; [8]) was “NS”. For the same compound, the “Thermal Hyperalgesia, change” value (CFA-stimulated rats [2]; [9]) was “NS”, the “Thermal Hyperalgesia, change” value (CFA-stimulated rats [2]; [10]) was “NS” and the “Thermal Hyperalgesia, change” value (CFA-stimulated rats [2]; [11]) was “NS”. For the same compound, the “Thermal Hyperalgesia, change” value (CFA-stimulated rats [2]; [12]) was “+ (+ = statistically significant change in sensitivity compared to CFA alone, p < 0.05)”, the “Thermal Hyperalgesia, change” value (CFA-stimulated rats [2]; [13]) was “NS” and the “Thermal Hyperalgesia, change” value (CFA-stimulated rats [2]; [14]) was “+ (+ = statistically significant change in sensitivity compared to CFA alone, p < 0.05)”. The “thermal sensitivity (paw withdrawal latency)” value (CFA-stimulated rats [2]; 1 mg/kg, day 3 and pre-dose testing on day 7) was “reduced thermal sensitivity”, the “Mechanical Allodynia, change in sensitivity compared to CFA alone” value (“Mechanical Allodynia, change” for short) (CFA-stimulated rats [3]; [4]) was “NS” and the “Mechanical Allodynia, change” value (CFA-stimulated rats [3]; 0.025 mg/kg PO daily, Day 3, 1 h post-dose) was “NS”. For the same compound, the “Mechanical Allodynia, change” value (CFA-stimulated rats [3]; [5]) was “NS”, the “Mechanical Allodynia, change” value (CFA-stimulated rats [3]; [6]) was “NS” and the “Mechanical Allodynia, change” value (CFA-stimulated rats [3]; [7]) was “NS”. The “Mechanical Allodynia, change” value (CFA-stimulated rats [3]; [8]) was “NS”, the “Mechanical Allodynia, change” value (CFA-stimulated rats [3]; [9]) was “NS” and the “Mechanical Allodynia, change” value (CFA-stimulated rats [3]; [10]) was “NS”. The “Mechanical Allodynia, change” value (CFA-stimulated rats [3]; [11]) was “NS”, the “Mechanical Allodynia, change” value (CFA-stimulated rats [3]; [12]) was “NS” and the “Mechanical Allodynia, change” value (CFA-stimulated rats [3]; [13]) was “+ (+ = statistically significant change in sensitivity compared to CFA alone, p < 0.05)”. For the same compound, the “Mechanical Allodynia, change” value (CFA-stimulated rats [3]; [14]) was “NS” and the “mechanical allodynia (paw withdrawal threshold)” value (CFA-stimulated rats [3]; 1 mg/kg, study day 7, post-dose testing) was “reduced mechanical allodynia”.
